Reference: patent US7763620B2, “Piperazinone compounds as anti-tumor and anti-cancer agents and methods of treatment” (Yale University, priority 2001, dated 2010)

Columns and labels:
[1] = tested on: A-549 human lung cancer cells; assay: Antitumor activity in the nude mouse tumor xenograft model (A-549); type: in vivo; conditions: A-549 s.c. xenograft in nude mice; for inhibition of A-549 tumor growth: 28-34 days, versus vehicle; for average tumor size: over a period of 28-34 days, vehicle about 600 mm^3, s.c. osmotic mini-pumps
Description: Antitumor activity in the nude mouse tumor xenograft model—Nude mice (Charles River, Wilmington, Mass.) were maintained in accordance with the Institutional Animal Care and Use Committee (IACUC) procedures and guidelines. A-549 cells were harvested, resuspended in PBS and injected s.c. into the right and left flank (7×10^6 cells per flank) of 8 week old female nude mice as reported previously (1, 2). When tumors reached 50 to 100 mm^3, animals either were implanted s.c. with 2-week osmotic mini-pumps (Alzet 2002, Alzet, Palo Alto, Calif.). The mini-pumps were implanted on the right flank and the tumor cells on the left flank. Control animals received a saline vehicle whereas treated animals were injected with either vehicle, GGTI-2154, GGTI-2418, GGTI-2432 and GGTI-2430. The tumor volumes were determined by measuring the length (l) and the width (w) and calculating the volume (V=lw^2/2) as described previously (30, 31).

[2] = tested on: Rap1A processing by GGTase-I; assay: Inhibition of Rap1A processing (geranylgeranylation) in oncogenic H-Ras-transformed NIH 3T3 cells, immunoblot; type: cell-based; conditions: read-out: IC50, block of Rap1A processing by GGTase-I
Procedure: (§1) The in vitro inhibition assays of GGTase-1 and FTase were carried out by measuring the [^3H]GGPP and [^3H]FPP incorporated into H-Ras-CVLL and H-Ras-CVLS, respectively, as previously described.^27 The in vivo inhibition of geranylgeranylation and farnesylation was determined based on the level of inhibition of Rap1A and H-Ras processing, respectively.^10 Briefly, oncogenic H-Ras-transformed NIH 3T3 cells were treated with various concentrations of inhibitors, and the cell lysates were separated on 12.5% SDS-PAGE. The separated proteins were transferred to nitrocellulose and immunoblotted using an anti-Ras antibody (Y13-258) or an anti-Rap1A antibody (SC-65). Antibody reactions were visualized using either peroxidase-conjugated goat anti-rat IgG or goat anti-rabbit IgG and an enhanced chemiluminescence detection system. The results of those assays appear in Table 1 (FIG. 9), Table 2 (FIG. 10) and Table 3 (FIG. 11).

GGTase-I = GGTase-I (Homo sapiens, UniProt P49354+P53609); assay: In vitro GGTase-I inhibition ([3H]GGPP incorporation into H-Ras-CVLL); type: biochemical; conditions: Table 3, FIG. 11
Procedure: as §1

Cc1ccccc1-c1cc(NCc2cnc[nH]2)ccc1C(=O)N[C@@H](CC(C)C)C(=O)O [GGTI-2154, reference compound]
inhibition of A-549 tumor growth [1]: 66% | average tumor size [1]: 250 mm^3

COC(=O)[C@H](CC(C)C)NC(=O)N1CCN(Cc2nc[nH]c2C)C(=O)[C@@H]1Cc1ccccc1 [GGTI-2417]
IC50 [2]: 300 nM

Cc1nc[nH]c1CN1CCN(C(=O)N[C@@H](CC(C)C)C(=O)O)[C@@H](Cc2ccccc2)C1=O [GGTI-2418]
inhibition of GGTase-I (activity in words) (GGTase-I): exceptional activity | inhibition of A-549 tumor growth [1]: 57% | average tumor size [1]: 280 mm^3
